From PubChem BioAssay AID212 (DTP/NCI, 2004)
Values joined by “and” are separate entries in the source; they are usually repeats but may differ in a detail not shown here. Equal values may be shown once. Results filed as inconclusive are left out.

Test system: BDF1 mice, colon carcinoma 38 sc, T/C %
Experiment: NCI In Vivo Anticancer Drug Screen. Data for tumor model Colon Carcinoma 38 (subcutaneous) in B6D2F1 (BDF1) mice
Conditions: endpoint: median tumor weight (est.), higher = larger tumour
How it was run: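 T/C readout: treated group (T) measurement over vehicle control group (C) measurement. Endpoint is survival or tumor size in mice bearing a transplanted tumor.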

[1] = dose: 12.5 mg/kg/injection, schedule: Q07DX002 (ip), vehicle: saline
[2] = dose: 25.0 mg/kg/injection, schedule: Q07DX002 (ip), vehicle: saline
[3] = dose: 50.0 mg/kg/injection, schedule: Q07DX002 (ip), vehicle: saline
[4] = dose: 100.0 mg/kg/injection, schedule: Q07DX002 (ip), vehicle: saline
[5] = dose: 200.0 mg/kg/injection, schedule: Q07DX002 (ip), vehicle: saline
[6] = dose: 12.5 mg/kg/injection, schedule: Q07DX002 (ip), vehicle: saline with Tween-80
[7] = dose: 200.0 mg/kg/injection, schedule: Q07DX002 (ip), vehicle: saline with Tween-80
[8] = dose: 400.0 mg/kg/injection, schedule: Q07DX002 (ip), vehicle: saline with Tween-80
[9] = dose: 100.0 mg/kg/injection, schedule: Q07DX002 (ip), vehicle: Klucel (hydroxypropylcellulose) (HPC)
[10] = dose: 200.0 mg/kg/injection, schedule: Q07DX002 (ip), vehicle: Klucel (hydroxypropylcellulose) (HPC)
[11] = dose: 6.25 mg/kg/injection, schedule: Q07DX002 (ip), vehicle: saline
[12] = dose: 25.0 mg/kg/injection, schedule: Q07DX002 (ip), vehicle: saline with Tween-80
[13] = dose: 50.0 mg/kg/injection, schedule: Q07DX002 (ip), vehicle: saline with Tween-80
[14] = dose: 100.0 mg/kg/injection, schedule: Q07DX002 (ip), vehicle: saline with Tween-80

## Cc1cc(SCC(=O)c2ccc(Br)cc2)cc(C)[o+]1
[1]
  T/C: 122 % of control
[2]
  T/C: 77 % of control and 101 % of control
[3]
  T/C: 111 % of control and 107 % of control
[4]
  T/C: 98 % of control and 100 % of control
[5]
  T/C: 100 % of control

## C=CCNc1nc2c(s1)CCc1cc(OC)c(OC)cc1-2
[6]
  T/C: 94 % of control
[7]
  T/C: 109 % of control and 111 % of control
[8]
  T/C: 73 % of control

## CCNC(=O)[B-][N+](C)(C)C
[9]
  T/C: 116 % of control
[10]
  T/C: 67 % of control
dose: 400.0 mg/kg/injection, schedule: Q07DX002 (ip), vehicle: Klucel (hydroxypropylcellulose) (HPC)
  T/C: 113 % of control and 96 % of control

## NCCCNCCSP(=O)(O)O
[11]
  T/C: 101 % of control
[1]
  T/C: 103 % of control
[12]
  T/C: 83 % of control
[2]
  T/C: 81 % of control
[13]
  T/C: 73 % of control
[3]
  T/C: 109 % of control
[14]
  T/C: 91 % of control
[4]
  T/C: 72 % of control
[7]
  T/C: 82 % of control
[5]
  T/C: 76 % of control
[8]
  T/C: 82 % of control

## N=C(N)Sc1cc(O)ccc1O
dose: 12.5 mg/kg/injection, schedule: Q07DX003 (ip), vehicle: saline
  T/C: 88 % of control
dose: 25.0 mg/kg/injection, schedule: Q07DX003 (ip), vehicle: saline
  T/C: 66 % of control
dose: 50.0 mg/kg/injection, schedule: Q07DX003 (ip), vehicle: saline
  T/C: 77 % of control
dose: 100.0 mg/kg/injection, schedule: Q07DX003 (ip), vehicle: saline
  T/C: 103 % of control
dose: 200.0 mg/kg/injection, schedule: Q07DX003 (ip), vehicle: saline
  T/C: 55 % of control

## Cn1cnc([N+](=O)[O-])c1S(=O)(=O)NCN1CCOCC1
[9]
  T/C: 102 % of control and 104 % of control

## O=C(O)CP(=O)(O)O
[5]
  T/C: 115 % of control and 96 % of control
dose: 800.0 mg/kg/injection, schedule: Q07DX002 (ip), vehicle: saline
  T/C: 78 % of control and 80 % of control
dose: 1600.0 mg/kg/injection, schedule: Q07DX002 (ip), vehicle: saline
  T/C: 59 % of control

## CCCCOCN(COCCCC)C12CC3CC(CC(C3)C1)C2
[12]
  T/C: 93 % of control
[13]
  T/C: 73 % of control
[14]
  T/C: 120 % of control
[7]
  T/C: 69 % of control

## COc1ccc(OC)c(/C=C/c2ccnc3ccccc23)c1
[6]
  T/C: 152 % of control
[12]
  T/C: 101 % of control
[13]
  T/C: 86 % of control
[14]
  T/C: 116 % of control
[7]
  T/C: 111 % of control
[8]
  T/C: 75 % of control

## CN(Cc1cnc2nc(N)nc(N)c2n1)c1c(Cl)cc(C(=O)NC(CCC(=O)O)C(=O)O)cc1Cl (stereo not drawn)
dose: 3.12 mg/kg/injection, schedule: Q07DX003 (ip), vehicle: Klucel (hydroxypropylcellulose) (HPC)
  T/C: 155 % of control
dose: 6.25 mg/kg/injection, schedule: Q07DX003 (ip), vehicle: Klucel (hydroxypropylcellulose) (HPC)
  T/C: 117 % of control
dose: 12.5 mg/kg/injection, schedule: Q07DX003 (ip), vehicle: suspension in saline
  T/C: 87 % of control
dose: 25.0 mg/kg/injection, schedule: Q07DX003 (ip), vehicle: suspension in saline
  T/C: 124 % of control
dose: 50.0 mg/kg/injection, schedule: Q07DX003 (ip), vehicle: Klucel (hydroxypropylcellulose) (HPC)
  T/C: 72 % of control
dose: 50.0 mg/kg/injection, schedule: Q07DX003 (ip), vehicle: suspension in saline
  T/C: 77 % of control
dose: 100.0 mg/kg/injection, schedule: Q07DX003 (ip), vehicle: Klucel (hydroxypropylcellulose) (HPC)
  T/C: 90 % of control
dose: 100.0 mg/kg/injection, schedule: Q07DX003 (ip), vehicle: suspension in saline
  T/C: 86 % of control
dose: 200.0 mg/kg/injection, schedule: Q07DX003 (ip), vehicle: Klucel (hydroxypropylcellulose) (HPC)
  T/C: 102 % of control
dose: 200.0 mg/kg/injection, schedule: Q07DX003 (ip), vehicle: suspension in saline
  T/C: 81 % of control
dose: 400.0 mg/kg/injection, schedule: Q07DX003 (ip), vehicle: Klucel (hydroxypropylcellulose) (HPC)
  T/C: 62 % of control
dose: 400.0 mg/kg/injection, schedule: Q07DX003 (ip), vehicle: suspension in saline
  T/C: 101 % of control

## CO[C@H](C(=O)[C@@H](O)[C@@H](C)O)[C@@H]1Cc2cc3cc(OC4CC(OC5CC(O)C(O)C(C)O5)C(O)C(C)O4)c(C)c(O)c3c(O)c2C(=O)[C@H]1OC1CC(OC2CC(OC3CC(C)(O)C(O)C(C)O3)C(O)C(C)O2)C(O)C(C)O1 (stereo partly drawn)
dose: 0.06 mg/kg/injection, schedule: Q07DX002 (ip), vehicle: saline
  T/C: 114 % of control
dose: 0.12 mg/kg/injection, schedule: Q07DX002 (ip), vehicle: saline
  T/C: 99 % of control
dose: 0.25 mg/kg/injection, schedule: Q07DX002 (ip), vehicle: saline
  T/C: 161 % of control
dose: 0.25 mg/kg/injection, schedule: Q07DX003 (ip), vehicle: saline
  T/C: 75 % of control
dose: 0.5 mg/kg/injection, schedule: Q07DX003 (ip), vehicle: saline
  T/C: 65 % of control
dose: 1.0 mg/kg/injection, schedule: Q07DX003 (ip), vehicle: saline
  T/C: 49 % of control
dose: 2.0 mg/kg/injection, schedule: Q07DX003 (ip), vehicle: saline
  T/C: 37 % of control

## Oc1ccc(O)cc1
dose: 6.25 mg/kg/injection, schedule: Q07DX002 (ip), vehicle: suspension in saline
  T/C: 80 % of control
dose: 12.5 mg/kg/injection, schedule: Q07DX002 (ip), vehicle: suspension in saline
  T/C: 95 % of control
dose: 25.0 mg/kg/injection, schedule: Q07DX002 (ip), vehicle: suspension in saline
  T/C: 108 % of control
dose: 50.0 mg/kg/injection, schedule: Q07DX002 (ip), vehicle: suspension in saline
  T/C: 94 % of control
dose: 100.0 mg/kg/injection, schedule: Q07DX002 (ip), vehicle: suspension in saline
  T/C: 97 % of control

## CC(C)(C)C1CCCCC1
dose: 12.5 mg/kg/injection, schedule: Q07DX002 (ip), vehicle: Klucel (hydroxypropylcellulose) (HPC)
  T/C: 100 % of control
dose: 25.0 mg/kg/injection, schedule: Q07DX002 (ip), vehicle: Klucel (hydroxypropylcellulose) (HPC)
  T/C: 124 % of control
[9]
  T/C: 104 % of control
[10]
  T/C: 77 % of control

## NC(C(=O)O)c1ccc(CBr)cc1 (stereo not drawn)
[6]
  T/C: 151 % of control
[12]
  T/C: 106 % of control
[13]
  T/C: 182 % of control

## CCN(CC)CCCC(C)Nc1c2ccc(Cl)cc2nc2ccc(OC)cc12 (stereo not drawn)
dose: 16.0 mg/kg/injection, schedule: Q07DX003 (ip), vehicle: suspension in saline
  T/C: 96 % of control and 103 % of control
dose: 32.0 mg/kg/injection, schedule: Q07DX003 (ip), vehicle: suspension in saline
  T/C: 95 % of control and 106 % of control
dose: 64.0 mg/kg/injection, schedule: Q07DX003 (ip), vehicle: suspension in saline
  T/C: 53 % of control
dose: 128.0 mg/kg/injection, schedule: Q07DX003 (ip), vehicle: suspension in saline
  T/C: 79 % of control

## C[C@]12C=CC(=O)C=C1CC[C@@H]1[C@@H]2[C@@H](O)C[C@@]2(C)[C@H]1CC[C@]2(O)C(=O)CO
dose: 40.0 mg/kg/injection, schedule: Q07DX003 (ip), vehicle: Klucel (hydroxypropylcellulose) (HPC)
  T/C: 100 % of control
dose: 80.0 mg/kg/injection, schedule: Q07DX003 (ip), vehicle: Klucel (hydroxypropylcellulose) (HPC)
  T/C: 56 % of control
dose: 160.0 mg/kg/injection, schedule: Q07DX003 (ip), vehicle: Klucel (hydroxypropylcellulose) (HPC)
  T/C: 58 % of control
dose: 320.0 mg/kg/injection, schedule: Q07DX003 (ip), vehicle: Klucel (hydroxypropylcellulose) (HPC)
  T/C: 30 % of control
dose: 640.0 mg/kg/injection, schedule: Q07DX003 (ip), vehicle: Klucel (hydroxypropylcellulose) (HPC)
  T/C: 24 % of control

## C=CC(=O)N1CN(C(=O)C=C)CN(C(=O)C=C)C1
dose: 1.56 mg/kg/injection, schedule: Q07DX002 (ip), vehicle: saline with Tween-80
  T/C: 82 % of control
dose: 1.56 mg/kg/injection, schedule: Q07DX002 (ip), vehicle: saline
  T/C: 74 % of control
dose: 3.12 mg/kg/injection, schedule: Q07DX002 (ip), vehicle: saline with Tween-80
  T/C: 85 % of control
dose: 3.12 mg/kg/injection, schedule: Q07DX002 (ip), vehicle: saline
  T/C: 110 % of control
dose: 6.25 mg/kg/injection, schedule: Q07DX002 (ip), vehicle: saline with Tween-80
  T/C: 104 % of control
[11]
  T/C: 90 % of control
[6]
  T/C: 120 % of control
